In ChEMBL document CHEMBL1142200, “Efficacy of delayed treatment with ST-246 given orally against systemic orthopoxvirus infections in mice” (Antimicrob Agents Chemother, 2007):
The source made the active and inactive calls. The rule behind the calls is not given here.

Columns and labels:
[1] = test system: Cowpox virus; experiment: Reduction of Cowpox virus BR replication in BALB/c mouse spleen at 15 mg/kg after 24 hrs of viral infection, ip for 5 days; type: functional, organism-based; design: dose 15 mg/kg
[2] = test system: Mus musculus; experiment: Effect on mortality of A/NCr mouse inoculated with 41 PFU ectromelia virus at 100 mg/kg after 4 hrs of viral infection, ip once daily for 14 days; type: functional; settings: route intraperitoneal
[3] = Selectivity index, ratio of CC50 for HFF cells to EC50 for Vaccinia virus WR infected HFF cells; type: functional
[4] = test system: Mus musculus; experiment: Effect on mortality of A/NCr mouse inoculated with 410 PFU ectromelia virus at 100 mg/kg after 4 hrs of viral infection, ip once daily for 14 days; type: functional; settings: route intraperitoneal
[5] = test system: Mus musculus; experiment: Effect on mortality of A/NCr mouse inoculated with ectromelia virus at 100 mg/kg after 48 hrs of viral infection, ip once daily for 10 days relative control; type: functional; settings: route intraperitoneal
[6] = Selectivity index, ratio of CC50 for HFF cells to EC50 for Vaccinia virus Copenhagen infected HFF cells; type: functional
[7] = test system: Vaccinia virus; experiment: Reduction of Vaccinia virus WR replication in BALB/c mouse spleen at 15 mg/kg after 24 hrs of viral infection, ip for 5 days; type: functional, organism-based; design: dose 15 mg/kg; settings: Orthopoxvirus vaccinia
[8] = test system: Vaccinia virus; experiment: Reduction of Vaccinia virus WR replication in BALB/c mouse liver at 15 mg/kg after 24 hrs of viral infection, ip for 5 days; type: functional, organism-based; design: dose 15 mg/kg; settings: Orthopoxvirus vaccinia
[9] = test system: Mus musculus; experiment: Effect on mortality of A/NCr mouse inoculated with 4100 PFU ectromelia virus at 100 mg/kg after 4 hrs of viral infection, ip once daily for 14 days; type: functional; settings: route intraperitoneal
[10] = test system: Mus musculus; experiment: Effect on mortality of BALB/c mouse inoculated with Cowpox virus at 15 mg/kg after 48 hrs of viral infection, ip once daily for 5 days relative to control; type: functional; settings: route intraperitoneal
[11] = test system: Mus musculus; experiment: Effect on mortality of BALB/c mouse inoculated with Cowpox virus at 15 mg/kg after 72 hrs of viral infection, ip once daily for 5 days relative to control; type: functional; settings: route intraperitoneal
[12] = Cytotoxicity against HFF cells; type: cell-based; settings: human
[13] = test system: Mus musculus; experiment: Effect on mortality of A/NCr mouse inoculated with ectromelia virus at 100 mg/kg after 0 hrs of viral infection, ip once daily for 10 days relative control; type: functional; settings: route intraperitoneal
[14] = test system: Mus musculus; experiment: Effect on mortality of A/NCr mouse inoculated with 4.1 PFU ectromelia virus at 100 mg/kg after 4 hrs of viral infection, ip once daily for 14 days; type: functional; settings: route intraperitoneal
[15] = test system: Mus musculus; experiment: Effect on mortality of A/NCr mouse inoculated with ectromelia virus at 100 mg/kg after 72 hrs of viral infection, ip once daily for 10 days relative control; type: functional; settings: route intraperitoneal
[16] = test system: Vaccinia virus; experiment: Reduction of Vaccinia virus WR replication in BALB/c mouse kidney at 15 mg/kg after 24 hrs of viral infection, ip for 5 days; type: functional, organism-based; design: dose 15 mg/kg; settings: Orthopoxvirus vaccinia
[17] = Selectivity index, ratio of CC50 for HFF cells to EC50 for Cowpox virus Brighton infected HFF cells; type: functional
[18] = test system: Mus musculus; experiment: Effect on mortality of BALB/c mouse inoculated with Cowpox virus BR at 15 mg/kg after 24 hrs of viral infection, ip for 5 days relative to control; type: functional; settings: route intraperitoneal
[19] = test system: Mus musculus; experiment: Effect on mortality of BALB/c mouse inoculated with Cowpox virus at 15 mg/kg after 24 hrs of viral infection, ip once daily for 5 days relative to control; type: functional; settings: route intraperitoneal
[20] = test system: Mus musculus; experiment: Effect on mortality of BALB/c mouse inoculated with Cowpox virus at 15 mg/kg after 4 hrs of viral infection, ip once daily for 5 days relative to control; type: functional; settings: route intraperitoneal
[21] = test system: Mus musculus; experiment: Effect on mortality of BALB/c mouse inoculated with Cowpox virus BR at 50 mg/kg after 24 hrs of viral infection, po for 9 days; type: functional, organism-based; design: dose 50 mg/kg
[22] = test system: Mus musculus; experiment: Effect on mortality of BALB/c mouse inoculated with Vaccinia virus WR at 15 mg/kg after 24 hrs of viral infection, ip for 5 days relative to control; type: functional; settings: route intraperitoneal
[23] = test system: Cowpox virus; experiment: Reduction of Cowpox virus BR replication in BALB/c mouse kidney at 15 mg/kg after 24 hrs of viral infection, ip for 5 days; type: functional, organism-based; design: dose 15 mg/kg
[24] = test system: Cowpox virus; experiment: Reduction of Cowpox virus BR replication in BALB/c mouse liver at 15 mg/kg after 24 hrs of viral infection, ip for 5 days; type: functional, organism-based; design: dose 15 mg/kg
[25] = test system: Mus musculus; experiment: Effect on mortality of A/NCr mouse inoculated with ectromelia virus at 100 mg/kg after 24 hrs of viral infection, ip once daily for 10 days relative control; type: functional; settings: route intraperitoneal

With `Nc1ccn(C[C@@H](CO)OCP(=O)(O)O)c(=O)n1.O.O` [CIDOFOVIR] the Activity [1] was “Active”, the Activity [2] was 40% and the “Ratio CC50/EC50” value [3] was over 9.6. For the same compound, the Activity [4] was 0%, the Activity [5] was 0% and the “Ratio CC50/EC50” value [6] was over 10.9. The Activity [7] was “Active”, the Activity [8] was “Active” and the Activity [9] was 0%. For the same compound, the Activity [10] was 0%, the Activity [11] was 0% and the CC50 [12] was over 317 µM. It also gave an Activity [13] of 0%, an Activity [14] of 0% and an Activity [15] of 0%. For the same compound, the Activity [16] was “Active”, the “Ratio CC50/EC50” value [17] was over 7.7 and the Activity [18] was 0%. The Activity [19] was 0%, the Activity [20] was 0% and the Activity [21] was “Active”. For the same compound, the Activity [22] was 7%, the Activity [23] was “Active” and the Activity [24] was “Active”. It also gave an Activity [25] of 0%.
